Data taken from the supplement of paper PMC10307832.

Experiments:
Test in all cases: relative viability (nuclei count vs DMSO), 5 days (fraction); higher = more cells survive
[1] = tested on: NCI-H1651
In short: (§1)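 A single step with final 0.05% Triton X-100, 1% formaldehyde and 1 ug/ml Hoechst fixed the cells and stained nuclei 5 days after treatment. Lung cancer cell lines in 1536-well plates had been treated by pin tool the day after seeding with one drug alone or a fixed anchor-drug dose plus five library-drug doses (not always all listed) in √10 steps, and nuclei were counted on 4× images. Relative viability is the ratio of nuclei in treated wells to nuclei in vehicle wells, taken as the median of duplicate plates.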

[2] = tested on: NCI-H520
In short: as §1

[3] = tested on: RERF-LC-KJ
In short: as §1

[4] = tested on: NCI-H1703
In short: as §1

[5] = tested on: A549
In short: as §1

[6] = tested on: NCI-H1299
In short: as §1

[7] = tested on: NCI-H1623
In short: as §1

[8] = tested on: Calu-6
In short: as §1

[9] = tested on: EBC-1
In short: as §1

[10] = tested on: IA-LM
In short: as §1

[11] = tested on: NCI-H1648
In short: as §1

[12] = tested on: NCI-H522
In short: as §1

SMILES: NC(=O)Nc1cc(-c2cccc(F)c2)sc1C(=O)N[C@H]1CCCNC1 [AZD7762] + COc1cc2c(Oc3ccc(NC(=O)C4(C(=O)Nc5ccc(F)cc5)CC4)cc3F)ccnc2cc1OCCCN1CCOCC1 [Foretinib] (partner 0.25 µM)
- relative viability ([1]; first compound 0.01 µM): 0.912
- relative viability ([1]; first compound 0.03162 µM): 0.785
- relative viability ([1]; first compound 0.1 µM): 0.693
- relative viability ([1]; first compound 0.3162 µM): 0.573
- relative viability ([1]; first compound 1 µM): 0.186
- relative viability ([2]; first compound 0.01 µM): 0.989
- relative viability ([2]; first compound 0.03162 µM): 0.826
- relative viability ([2]; first compound 0.1 µM): 0.803
- relative viability ([2]; first compound 0.3162 µM): 0.518
- relative viability ([2]; first compound 1 µM): 0.351
- relative viability ([3]; first compound 0.01 µM): 0.882
- relative viability ([3]; first compound 0.03162 µM): 0.891
- relative viability ([3]; first compound 0.1 µM): 0.965
- relative viability ([3]; first compound 0.3162 µM): 0.944
- relative viability ([3]; first compound 1 µM): 0.97
- relative viability ([4]; first compound 0.01 µM): 0.398
- relative viability ([4]; first compound 0.03162 µM): 0.34
- relative viability ([4]; first compound 0.1 µM): 0.348
- relative viability ([4]; first compound 0.3162 µM): 0.292
- relative viability ([4]; first compound 1 µM): 0.174
- relative viability ([5]; first compound 0.01 µM): 1.02
- relative viability ([5]; first compound 0.03162 µM): 0.928
- relative viability ([5]; first compound 0.1 µM): 0.942
- relative viability ([5]; first compound 0.3162 µM): 0.837
- relative viability ([5]; first compound 1 µM): 0.259
- relative viability ([6]; first compound 0.01 µM): 1.09
- relative viability ([6]; first compound 0.03162 µM): 1.15
- relative viability ([6]; first compound 0.1 µM): 1.09
- relative viability ([6]; first compound 0.3162 µM): 1.07
- relative viability ([6]; first compound 1 µM): 0.622
- relative viability ([7]; first compound 0.01 µM): 0.874
- relative viability ([7]; first compound 0.03162 µM): 0.821
- relative viability ([7]; first compound 0.1 µM): 1
- relative viability ([7]; first compound 0.3162 µM): 0.96
- relative viability ([7]; first compound 1 µM): 0.664
- relative viability ([8]; first compound 0.01 µM): 0.805
- relative viability ([8]; first compound 0.03162 µM): 0.83
- relative viability ([8]; first compound 0.1 µM): 0.831
- relative viability ([8]; first compound 0.3162 µM): 0.264
- relative viability ([8]; first compound 1 µM): 0.0933
- relative viability ([9]; first compound 0.01 µM): 0.101
- relative viability ([9]; first compound 0.03162 µM): 0.0952
- relative viability ([9]; first compound 0.1 µM): 0.105
- relative viability ([9]; first compound 0.3162 µM): 0.119
- relative viability ([9]; first compound 1 µM): 0.116
- relative viability ([10]; first compound 0.01 µM): 1.44
- relative viability ([10]; first compound 0.03162 µM): 1.29
- relative viability ([10]; first compound 0.1 µM): 1.48
- relative viability ([10]; first compound 0.3162 µM): 1.29
- relative viability ([10]; first compound 1 µM): 0.59

SMILES: NC(=O)Nc1cc(-c2cccc(F)c2)sc1C(=O)N[C@H]1CCCNC1 [AZD7762] + COc1cccc2cc(-c3nc([C@H]4CC[C@H](C(=O)O)CC4)n4ncnc(N)c34)[nH]c12 [OSI-027] (partner 0.5 µM)
- relative viability ([11]; first compound 0.01 µM): 0.244
- relative viability ([11]; first compound 0.03162 µM): 0.257
- relative viability ([11]; first compound 0.1 µM): 0.27
- relative viability ([11]; first compound 0.3162 µM): 0.253
- relative viability ([11]; first compound 1 µM): 0.294
- relative viability ([1]; first compound 0.01 µM): 0.76
- relative viability ([1]; first compound 0.03162 µM): 0.637
- relative viability ([1]; first compound 0.1 µM): 0.653
- relative viability ([1]; first compound 0.3162 µM): 0.637
- relative viability ([1]; first compound 1 µM): 0.193
- relative viability ([2]; first compound 0.01 µM): 0.294
- relative viability ([2]; first compound 0.03162 µM): 0.246
- relative viability ([2]; first compound 0.1 µM): 0.246
- relative viability ([2]; first compound 0.3162 µM): 0.243
- relative viability ([2]; first compound 1 µM): 0.16
- relative viability ([3]; first compound 0.01 µM): 0.587
- relative viability ([3]; first compound 0.03162 µM): 0.668
- relative viability ([3]; first compound 0.1 µM): 0.77
- relative viability ([3]; first compound 0.3162 µM): 0.666
- relative viability ([3]; first compound 1 µM): 0.499
- relative viability ([7]; first compound 0.01 µM): 0.44
- relative viability ([7]; first compound 0.03162 µM): 0.464
- relative viability ([7]; first compound 0.1 µM): 0.414
- relative viability ([7]; first compound 0.3162 µM): 0.424
- relative viability ([7]; first compound 1 µM): 0.378
- relative viability ([12]; first compound 0.01 µM): 0.711
- relative viability ([12]; first compound 0.03162 µM): 0.683
- relative viability ([12]; first compound 0.1 µM): 0.696
- relative viability ([12]; first compound 0.3162 µM): 0.755
- relative viability ([12]; first compound 1 µM): 0.807

SMILES: NC(=O)Nc1cc(-c2cccc(F)c2)sc1C(=O)N[C@H]1CCCNC1 [AZD7762] + N=C(N)NC(=N)NCCc1ccccc1 [Phenformin] (partner 250 µM)
- relative viability ([1]; first compound 0.01 µM): 0.36
- relative viability ([1]; first compound 0.03162 µM): 0.434
- relative viability ([1]; first compound 0.1 µM): 0.319
- relative viability ([1]; first compound 0.3162 µM): 0.268
- relative viability ([1]; first compound 1 µM): 0.17
- relative viability ([2]; first compound 0.01 µM): 0.623
- relative viability ([2]; first compound 0.03162 µM): 0.758
- relative viability ([2]; first compound 0.1 µM): 0.585
- relative viability ([2]; first compound 0.3162 µM): 0.306
- relative viability ([2]; first compound 1 µM): 0.283
- relative viability ([3]; first compound 0.01 µM): 0.481
- relative viability ([3]; first compound 0.03162 µM): 0.424
- relative viability ([3]; first compound 0.1 µM): 0.399
- relative viability ([3]; first compound 0.3162 µM): 0.4
- relative viability ([3]; first compound 1 µM): 0.382
- relative viability ([5]; first compound 0.01 µM): 0.167
- relative viability ([5]; first compound 0.03162 µM): 0.183
- relative viability ([5]; first compound 0.1 µM): 0.187
- relative viability ([5]; first compound 0.3162 µM): 0.188
- relative viability ([5]; first compound 1 µM): 0.184
- relative viability ([7]; first compound 0.01 µM): 0.557
- relative viability ([7]; first compound 0.03162 µM): 0.606
- relative viability ([7]; first compound 0.1 µM): 0.594
- relative viability ([7]; first compound 0.3162 µM): 0.632
- relative viability ([7]; first compound 1 µM): 0.497
- relative viability ([12]; first compound 0.01 µM): 0.668
- relative viability ([12]; first compound 0.03162 µM): 0.711
- relative viability ([12]; first compound 0.1 µM): 0.635
- relative viability ([12]; first compound 0.3162 µM): 0.752
- relative viability ([12]; first compound 1 µM): 0.597
